Results reported in patent US10703764B2, “Benzopiperazine compositions as BET bromodomain inhibitors” (FORMA Therapeutics, Inc., priority 2013, dated 2020).
Like-named read-outs stand apart in the source and are kept apart here.

Tests used:
[1] = target: T1, BRD4 BD1 (Homo sapiens, UniProt O60885); experiment: AlphaScreen binding assay, BRD4 Bromodomain 1
T1 construct: made in house
How it was run: (§1)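 An AlphaScreen competition format was used with His-BRD4 BD1 or BD2 and biotin-H4 K5/8/12/16-acetyl peptide, each at matched final levels of 50 nM (BD1) or 100 nM (BD2). Incubation in HEPES/NaCl buffer with 0.1% BSA and 0.01% Triton X-100 ran ≥1 h before IC50 determination.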

[2] = test system: MV4-11 cells; experiment: Oncology cell growth assay (3-day proliferation, CellTiter-Glo); format: cell-based; conditions: Homo sapiens, AML cell line MV4-11, 72 hours, compounds grouped by IC50 range, read-out: MV4-11 IC50 (inhibition of proliferation, gIC50)
Procedure: The impact of Example compounds on cancer cell proliferation was determined using the acute myelocytic leukemia (AML) cell line MV4-11 (ATCC) in a 3-day proliferation assay. MV4-11 cells were maintained in RPMI 1640 media supplemented with 10% FBS at 37° C. and an atmosphere of 5% CO2. For compound testing, compound dilutions series were prepared in DMSO via a 3-fold serial dilution from 2 mM to 0.001 mM in 384-well white flat bottom plates. The final compound concentrations in the wells were 10, 3.3, 1.1, 0.37, 0.12, 0.041, 0.013 and 0.0045 μM. MV4-11 cells were plated at a density of 3000 cells/well in final volume of 50 μl culture media and incubated for 72 hours. […] Luminescent signal from the CellTiter-Glo assay was read on an EnVision multilabel plate reader (PerkinElmer). Values for the concentration that inhibited cell growth by 50% (gIC50) between the DMSO control and background control (no cells) were determined using IDBS Activity Base software with a four parameter logistic curve fit by the equation y=A+((B−A)/(1+((C/x)^D))), wherein A denotes the bottom plateau of the curve, B denotes the top plateau of the curve, C denotes the x value at the middle of the curve, D denotes the slope factor, x denotes the original known x values, and y denotes the original known y values. Data was fitted using the Levenburg Marquardt algorithm.

[3] = target: T2, BRD4 BD2 (Homo sapiens, UniProt O60885); experiment: AlphaScreen binding assay, BRD4 Bromodomain 2
T2 construct: made in house
How it was run: as §1

IC50 [1] [nM] | IC50 ([2]; MV4-11, 72 h) [nM] | IC50 [3] [nM] | Structure (SMILES) | IC50 [2] [nM]
100 to 1000 | > 500 | 50 to 500 | CC(=O)N1c2ccc(-c3cnn(CC(C)(C)O)c3)cc2N(C(=O)OC2CC(F)(F)C2)C[C@@H]1C [Example I-28, (S)-3,3-difluorocyclobutyl 4-acetyl-7-(1-(2-hydroxy-2-methylpropyl)-1H-pyrazol-4-yl)-3-methyl-3,4-dihydroquinoxaline-1(2H)-carboxylate] | 
100 to 1000 | > 500 | > 500 | CC(=O)N1c2ccc(-c3ccc(N4CCCS4(=O)=O)cc3)cc2N(C(=O)OC2CC(F)(F)C2)C[C@@H]1C [Example I-29, 3,3-difluorocyclobutyl (3S)-4-acetyl-7-[4-(1,1-dioxo-1λ^6,2-thiazolidin-2-yl)phenyl]-3-methyl-1,2,3,4-tetrahydroquinoxaline-1-carboxylate] | 
100 to 1000 | > 500 | > 500 | CC(=O)N1c2ccc(-c3ccc(NS(C)(=O)=O)cc3)cc2N(C(=O)OC2CC(F)(F)C2)C[C@@H]1C [Example I-30, (S)-3,3-difluorocyclobutyl 4-acetyl-3-methyl-7-(4-(methylsulfonamido)phenyl)-3,4-dihydroquinoxaline-1(2H)-carboxylate] | 
100 to 1000 | 100 to 500 | 50 to 500 | CC(=O)N1c2ccc(-c3ccc(NS(C)(=O)=O)cc3)cc2N(C(=O)OC2CCC(F)(F)CC2)C[C@@H]1C [Example I-31, (S)-4,4-difluorocyclohexyl 4-acetyl-3-methyl-7-(4-(methylsulfonamido)phenyl)-3,4-dihydroquinoxaline-1(2H)-carboxylate] | 
100 to 1000 | 100 to 500 | 50 to 500 | CC(=O)N1c2ccc(-c3cnn(C4CC4)c3)cc2N(C(=O)OC2CCC(F)(F)CC2)C[C@@H]1C [Example I-33, (S)-4,4-difluorocyclohexyl 4-acetyl-7-(1-cyclopropyl-1H-pyrazol-4-yl)-3-methyl-3,4-dihydroquinoxaline-1(2H)-carboxylate] | 
100 to 1000 | 100 to 500 | 50 to 500 | CC(=O)N1c2ccc(-c3cnn(CCO)c3)cc2N(C(=O)OC2CCC(F)(F)CC2)C[C@@H]1C [Example I-34, (S)-4,4-difluorocyclohexyl 4-acetyl-7-(1-(2-hydroxyethyl)-1H-pyrazol-4-yl)-3-methyl-3,4-dihydroquinoxaline-1(2H)-carboxylate] | 
100 to 1000 | 100 to 500 | 50 to 500 | CC(=O)N1c2ccc(-c3cnn(CC(C)(C)O)c3)cc2N(C(=O)OC2CCC(F)(F)CC2)C[C@@H]1C [Example I-35, (S)-4,4-difluorocyclohexyl 4-acetyl-7-(1-(2-hydroxy-2-methylpropyl)-1H-pyrazol-4-yl)-3-methyl-3,4-dihydroquinoxaline-1(2H)-carboxylate] | 
1000 to 10000 | 100 to 500 | 50 to 500 | CC(=O)N1c2ccc(-c3ccc(N4CCCS4(=O)=O)cc3)cc2N(C(=O)OC2CCC(F)(F)CC2)C[C@@H]1C [Example I-36, 4,4-difluorocyclohexyl (3S)-4-acetyl-7-[4-(1,1-dioxo-1λ^6,2-thiazolidin-2-yl)phenyl]-3-methyl-1,2,3,4-tetrahydroquinoxaline-1-carboxylate] | 
100 to 1000 | 100 to 500 | 50 to 500 | CC(=O)N1c2ccc(-c3cnn(C4CS(=O)(=O)C4)c3)cc2N(C(=O)OC2CCOCC2)C[C@@H]1C [Example I-37, oxan-4-yl (3S)-4-acetyl-7-[1-(1,1-dioxo-1λ^6-thietan-3-yl)-1H-pyrazol-4-yl]-3-methyl-1,2,3,4-tetrahydroquinoxaline-1-carboxylate] | 
100 to 1000 | 100 to 500 | 50 to 500 | CC(=O)N1c2ccc(-c3cnn(C4CCOCC4)c3)cc2N(C(=O)OC2CCOCC2)C[C@@H]1C [Example I-38, (S)-tetrahydro-2H-pyran-4-yl 4-acetyl-3-methyl-7-(1-(tetrahydro-2H-pyran-4-yl)-1H-pyrazol-4-yl)-3,4-dihydroquinoxaline-1(2H)-carboxylate] | 
100 to 1000 | < 100 | < 50 | CC(=O)N1c2ccc(-c3cnn(C4CCOCC4)c3)cc2N(C(=O)OC2CCC2)C[C@@H]1C [Example I-39, (S)-cyclobutyl 4-acetyl-3-methyl-7-(1-(tetrahydro-2H-pyran-4-yl)-1H-pyrazol-4-yl)-3,4-dihydroquinoxaline-1(2H)-carboxylate] | 
100 to 1000 | 100 to 500 | 50 to 500 | C[C@H]1CN(C(=O)OC2CCCC2)c2cc(-c3cnn(C4CC4)c3)ccc2N1C(=O)C1CC1 [Example I-41, (S)-cyclopentyl 4-(cyclopropanecarbonyl)-7-(1-cyclopropyl-1H-pyrazol-4-yl)-3-methyl-3,4-dihydroquinoxaline-1 (2H)-carboxylate] | 
100 to 1000 | > 500 | 50 to 500 | COC(=O)N1c2ccc(-c3cnn(C4CC4)c3)cc2N(C(=O)OC(C)C)C[C@@H]1C [Example I-43, (S)-4-isopropyl 1-methyl 6-(1-cyclopropyl-1H-pyrazol-4-yl)-2-methyl-2,3-dihydroquinoxaline-1,4-dicarboxylate] | 
100 to 1000 | 100 to 500 | 50 to 500 | CC(=O)N1c2ccc(-c3cnn(C4CC4)c3)cc2N(c2nc3ccccc3o2)C[C@@H]1C [Example I-44, (S)-1-(4-(benzo[d]oxazol-2-yl)-6-(1-cyclopropyl-1H-pyrazol-4-yl)-2-methyl-3,4-dihydroquinoxalin-1(2H)-yl)ethanone] | 
100 to 1000 | 100 to 500 | > 500 | CC(=O)N1c2ccc(-c3ccc(S(C)(=O)=O)cc3)cc2N(c2nc3ccccc3o2)C[C@@H]1C [Example I-46, (S)-1-(4-(benzo[d]oxazol-2-yl)-2-methyl-6-(4-(methylsulfonyl)phenyl)-3,4-dihydroquinoxalin-1(2H)-yl)ethanone] | 
100 to 1000 | 100 to 500 | 50 to 500 | CC(=O)N1c2ccc(-c3cnn(C4CC4)c3)cc2N(c2ncc3ccccc3n2)C[C@@H]1C [Example I-51, (S)-1-(6-(1-cyclopropyl-1H-pyrazol-4-yl)-2-methyl-4-(quinazolin-2-yl)-3,4-dihydroquinoxalin-1(2H)-yl)ethanone] | 
100 to 1000 | < 100 | < 50 | CC(=O)N1c2ccc(-c3cnn(C4CC4)c3)cc2N(c2nn(C)c3ccccc23)C[C@@H]1C [Example I-52, (S)-1-(6-(1-cyclopropyl-1H-pyrazol-4-yl)-2-methyl-4-(1-methyl-1H-indazol-3-yl)-3,4-dihydroquinoxalin-1(2H)-yl)ethanone] | 
100 to 1000 | 100 to 500 | < 50 | CC(=O)N1c2ccc(-c3cnn(C4COC4)c3)cc2N(c2nn(C)c3ccccc23)C[C@@H]1C [Example I-53, (S)-1-(2-methyl-4-(1-methyl-1H-indazol-3-yl)-6-(1-(oxetan-3-yl)-1H-pyrazol-4-yl)-3,4-dihydroquinoxalin-1(2H)-yl)ethanone] | 
100 to 1000 | < 100 | 50 to 500 | CC(=O)N1c2ccc(-c3cnn(C4CC4)c3)cc2N(c2nn(C)c3cc(F)ccc23)C[C@@H]1C [Example I-54, (S)-1-(6-(1-cyclopropyl-1H-pyrazol-4-yl)-4-(6-fluoro-1-methyl-1H-indazol-3-yl)-2-methyl-3,4-dihydroquinoxalin-1(2H)-yl)ethanone] | 
100 to 1000 | 100 to 500 | < 50 | CC(=O)N1c2ccc(-c3cnn(C4CC4)c3)cc2N(c2nn(C)c3ccc(F)cc23)C[C@@H]1C [Example I-55, (S)-1-(6-(1-cyclopropyl-1H-pyrazol-4-yl)-4-(5-fluoro-1-methyl-1H-indazol-3-yl)-2-methyl-3,4-dihydroquinoxalin-1(2H)-yl)ethanone] | 
100 to 1000 | > 500 | 50 to 500 | CC(=O)N1c2ccc(-c3cnn(C4COC4)c3)cc2N(C(=O)OC2COC2)C[C@@H]1C [Example I-59, (S)-oxetan-3-yl 4-acetyl-3-methyl-7-(1-(oxetan-3-yl)-1H-pyrazol-4-yl)-3,4-dihydroquinoxaline-1(2H)-carboxylate] | 

Structure (SMILES) | IC50 [1] [nM] | IC50 ([2]; MV4-11, 72 h) [nM] | IC50 [3] [nM] | IC50 [2] [nM]
COC(=O)N1c2ccc(-c3cnn(C4CC4)c3)cc2N(C(=O)OC2CCCC2)C[C@@H]1C [Example I-40, (S)-4-cyclopentyl 1-methyl 6-(1-cyclopropyl-1H-pyrazol-4-yl)-2-methyl-2,3-dihydroquinoxaline-1,4-dicarboxylate] | 100 to 1000 |  | 50 to 500 | 100 to 500
COC(=O)N1c2ccc(-c3cnn(C4CC4)c3)cc2N(C(=O)C2CC2)C[C@@H]1C [Example I-42, (S)-methyl 4-(cyclopropanecarbonyl)-6-(1-cyclopropyl-1H-pyrazol-4-yl)-2-methyl-3,4-dihydroquinoxaline-1 (2H)-carboxylate] | 100 to 1000 |  | 50 to 500 | 100 to 500
